Data reported in patent publication EP4541797A1, “CAMPTOTHECIN DERIVATIVE, METHOD FOR PREPARING SAME, AND USE THEREOF” (Hangzhou Adcoris Biopharma Co., Ltd, priority 2022, dated 2024).
Read-outs that look alike come from different tables or passages of the source.

Columns and labels:
Assay type in all cases: cell-based
SK-BR-3 cells = assay: Inhibitory activity on cancer cell growth (CCK-8, 72 h), SK-BR-3 cells; settings: Homo sapiens, SK-BR-3, 72 h, human breast adenocarcinoma cells SK-BR-3, 72 h incubation
Description: (§1) Human esophageal cancer cells OE33, human breast adenocarcinoma cells SK-BR-3 and human gastric cancer cells NCI-N87 were cultured in RPMI1640 (Cellmax) supplemented with 10% fetal bovine serum (Cellmax) respectively. Cells in the exponential growth phase were diluted to a concentration of 1×10^5cells/mL by culture medium and added to 96-well cell culture plates at 100µL per well, then incubated overnight in a 37°C incubator with 5% CO2. On the following day, the test compounds and control compounds were diluted to concentrations of 10000 nM, 2000 nM, 400 nM, 80 nM, 16 nM, 3.2 nM, 0.64 nM, and 0.13 nM by culture medium and added to the 96-well cell culture plates at 2µL per well, with three replicate wells for each concentration. Negative control and blank control groups without the addition of compounds were supplemented with 2µL of the dilution liquid per well. After the addition of the compounds, the plates were returned to the 37°C incubator with 5% CO2 to continue incubation for 72 h. After incubation, the cell culture plates were removed, and the culture medium was aspirated using a pipette. Then, 100µL of culture medium containing 10% CCK-8 was added to each well, and the plates were incubated at 37°C for 3 h. After incubation, the plates were removed, kept in the dark, and placed in ELISA plate. Absorbance was measured at 630nm as the reference wavelength and 450nm as the test wavelength. The IC50 values (Tables 1-3) were calculated using the four-parameter logistic regression method in GraphPad, based on the absorbance values. SN38 (7-ethyl-10-hydroxycamptothecin) and 10CPT (10-hydroxycamptothecin) were used as control compounds. For the IC50 values, wherein "++++" indicates an IC50 < 50 nM; "+++" indicates an IC50 between 50 nM and 100 nM; "++" indicates an IC50 between 100 nM and 500 nM; and "+" indicates an IC50 > 500 nM. Table 1: Inhibitory activity of compounds to inhibit the growth of OE33 cells

OE33 cells = assay: Inhibitory activity on cancer cell growth (CCK-8, 72 h), OE33 cells; settings: Homo sapiens, OE33, 72 h, human esophageal cancer cells OE33, 72 h incubation
Description: as §1

NCI-N87 cells = assay: Inhibitory activity on cancer cell growth (CCK-8, 72 h), NCI-N87 cells; settings: Homo sapiens, NCI-N87, 72 h, human gastric cancer cells NCI-N87, 72 h incubation
Description: as §1

[1] = numeric value or bound, read-out: IC50

CC[C@@]1(O)C(=O)OCc2c1cc1n(c2=O)Cc2cc3c(CN(C)C(C)C)c(O)ccc3nc2-1 [Compound 10, 9-(N-methyl-N-isopropylamino)methyl-10-hydroxycamptothecin]
IC50 (SK-BR-3 cells; bound stated, read-out: IC50): < 100 nM
IC50 (SK-BR-3 cells; read-out: IC50): 50 to 100 nM
IC50 (OE33 cells; [1]): < 100 nM
IC50 (OE33 cells; read-out: IC50): 50 to 100 nM
IC50 (NCI-N87 cells; bound stated, read-out: IC50): < 100 nM
IC50 (NCI-N87 cells; read-out: IC50): < 50 nM

CCN(C)Cc1c(O)ccc2nc3c(cc12)Cn1c-3cc2c(c1=O)COC(=O)[C@]2(O)CC [Compound 19, 9-(N-methylethylamine)methyl-10-hydroxycamptothecin]
IC50 (SK-BR-3 cells): 50 to 100 nM
IC50 (SK-BR-3 cells; bound stated): < 100 nM
IC50 (OE33 cells): 50 to 100 nM
IC50 (OE33 cells; numeric value or bound): < 100 nM
IC50 (NCI-N87 cells): < 50 nM
IC50 (NCI-N87 cells; bound stated): < 100 nM

CC[C@@]1(O)C(=O)OCc2c1cc1n(c2=O)Cc2cc3c(CN(C)C4CC4)c(O)ccc3nc2-1 [Compound 17, 9-(N-methyl-N-cyclopropylamine)methyl-10-hydroxycamptothecin]
IC50 (SK-BR-3 cells; bound stated, read-out: IC50): < 100 nM
IC50 (SK-BR-3 cells; read-out: IC50): 50 to 100 nM
IC50 (OE33 cells; [1]): < 100 nM
IC50 (OE33 cells; read-out: IC50): 50 to 100 nM
IC50 (NCI-N87 cells; bound stated, read-out: IC50): < 100 nM
IC50 (NCI-N87 cells; read-out: IC50): < 50 nM

CC[C@@]1(O)C(=O)OCc2c1cc1n(c2=O)Cc2cc3c(CN4CCN(C(=O)OC)CC4)c(O)ccc3nc2-1 [Compound 9, 9-(1-(4-methoxycarbonylpiperazine))methyl-10-hydroxycamptothecin]
IC50 (SK-BR-3 cells; read-out: IC50): 50 to 100 nM
IC50 (OE33 cells; read-out: IC50): 100 to 500 nM
IC50 (NCI-N87 cells; read-out: IC50): < 50 nM
